Reference: patent publication US20220213156A1, “Peptides for use in therapy or prophylaxis of Herpesviridae-infections” (priority 2019, published 2022)
Like-named read-outs stand apart in the source and are kept apart here. Residues, ends and D or L forms follow the SMILES beside them.

How the values were obtained:
[1] = system: HFF, ARPE-19 and macrophages; assay: Impedance measurement (xCELLigence) toxicity study; type: cell-based, human; settings: ARPE-19, macrophages, 72 h impedance
From the text: The “xCELLigence” system (ACEA Biosciences Inc.) was used for a more detailed toxicity study. The principle is based on a measurement of the electrical resistance caused by adhesive cells on the bottom of a 96-well plate equipped with microelectrodes. Cell proliferation causes an increase in resistance due to the partial isolation of the electrodes, while events leading to altered cell morphology or cell detachment lead to reduced resistance (Diemert et al. “Impedance measurement for real time detection of neuronal cell death”, J Neurosci Methods, 203(1):69-77, 2012)). The experiments were performed with HFF, ARPE-19 and macrophages, the appropriate cell numbers were determined in a preliminary experiment without treatment with peptides.
On the first day 10 000 HFF or ARPE-19 or 20 000 macrophages per well were sown. […] Then a blank value was measured and the cells were added in corresponding numbers in 150 μl medium each, the final volume was 200 μl per well. The plate was placed in the “xCELLigence” and the impedance was measured at 37° C. and 5% CO2 over 24 h every 30 min. […] Afterwards, the resistance at the bottom of the 96-well plate was measured every 30 min for a further 72 h. The resistance of the tritone was measured with a positive control of 10% tritone. From the measured impedance values, the RTCA software calculated the so-called cell index according to the following formula: […]

zebrafish embryos = type: in vivo; settings: exposure from 6-7 hpf
Experimental: To test HD5 (1-9) (SEQ ID No. 1) for toxicity and to assess its effect on embryonic development in zebrafish, embryos obtained from natural crosses of wildtype TE fish were used. After mating, embryos were incubated at 28° C. until 6 h postfertilization (hpf). Triplicates of five embryos each were then placed in wells of a 96-well plate containing 200 μl of different peptide concentrations. HD5 (1-9) (SEQ ID No. 1) dissolved in PBS was diluted in normal embryo medium (250 mg/L Instant Ocean salt, 1 mg/L methylene blue in reverse osmosis water adjusted to pH 7 with NaHCO3) (Muller et al., “Differential diffusivity of Nodal and Lefty underlies a reaction-diffusion patterning system”; Science 336 (6082):721-724, 2012). The concentrations tested were 25 μM, 75 μM, 125 μM and 250 μM, and the concentration of PBS solvent was adjusted for each control group. At peptide concentrations of 75 μM and above we observed granulae in some wells, which could represent peptide accumulations. As a control, embryos were additionally incubated in 25 μg/ml cycloheximide (C4859, Sigma-Aldrich). After 13 hpf, 24 hpf and 48 hpf a microscopic phenotype analysis was performed. For each time point embryos were automatically imaged using an ACQUIFER Imaging Machine. For the phenotype analysis at 48 hpf, the larvae were manually dechorionated and anaesthetized with 2% tricaine methane-sulfonate (A5040-25G, Sigma-Aldrich). Images were acquired on an Axio Zoom.V16 microscope (ZEISS).
As a first test of HD5 (1-9) (SEQ ID No. 1) toxicity in vivo, as well as to elucidate potential effects of the peptide on embryonic development, experiments with zebrafish embryos were performed (He et al., 2014). Embryos were treated with HD5 (1-9) (SEQ ID No. 1) at concentrations of 25 μM, 75 μM, 125 μM and 250 μM starting at 6-7 h post fertilization (hpf), which is the time point recommended by pharmaceutical company-utilized assays to assess toxic effects of compounds on early embryonic development (Ball et al., 2014). Phenotypes were analyzed at 13.24 and 48 hpf (data not shown). […] Impaired development at 250 μM peptide exposure was also evident over the whole observation period, leading to the death of 11 embryos and 4 embryos having severe developmental delays by 48 hpf.

**Q.** With `C[C@H](N)C(=O)N[C@H](C(=O)N[C@@H](CS)C(=O)N[C@@H](Cc1ccc(O)cc1)C(=O)N[C@@H](CS)C(=O)N[C@@H](CCCNC(=N)N)C(=O)N[C@H](C(=O)NCC(=O)N[C@@H](CCCNC(=N)N)C(=O)O)[C@@H](C)O)[C@@H](C)O` [HD5 (1-9), ATCYCRTGR] (H-ATCYCRTGR-OH; N-terminus and C-terminus assumed) as the compound, how does the “concentration up to which no cytotoxicity is shown” value [1] read?
**A.** up to 150 μM

**Q.** What about the embryonic development (zebrafish embryos; 25 μM or 75 μM) of the same compound?
**A.** developed normally

**Q.** What about the embryonic development (zebrafish embryos; 125 μM) of the same compound?
**A.** approximately half of the embryos having no alterations

**Q.** And the “death of embryos by 48 hpf” value (zebrafish embryos; 250 μM)?
**A.** 11 embryos

**Q.** What about the “embryo death by 13 hpf” value (zebrafish embryos; 250 μM) of the same compound?
**A.** half of the embryos had died

**Q.** And the “embryos having severe developmental delays by 48 hpf” value (zebrafish embryos; 250 μM)?
**A.** 4 embryos
